Biological target: c-kit mutant D816V (Homo sapiens (Human), UniProt P10721, D816V/DEL694-753)
Experiment: c-Kit mutant D816V biochemical assay (AlphaScreen kinase activity)
Method in brief: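 Recombinant His-tagged c-Kit D816V kinase domain (residues 551-934, insert 694-753 deleted, E. coli-expressed) phosphorylating 30 nM biotin-(E4Y)10 with 10 μM ATP, HEPES pH 7.2, Mg/Mn, 5% DMSO; 30 min, room temperature. Phosphorylation detected by AlphaScreen (streptavidin donor/PY30 acceptor beads); IC50 from 8-point 1:3 series.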

c-kit mutant D816V, sequence (P10721 other isoform, or with tags, fused parts or gaps D816V/del 694-753): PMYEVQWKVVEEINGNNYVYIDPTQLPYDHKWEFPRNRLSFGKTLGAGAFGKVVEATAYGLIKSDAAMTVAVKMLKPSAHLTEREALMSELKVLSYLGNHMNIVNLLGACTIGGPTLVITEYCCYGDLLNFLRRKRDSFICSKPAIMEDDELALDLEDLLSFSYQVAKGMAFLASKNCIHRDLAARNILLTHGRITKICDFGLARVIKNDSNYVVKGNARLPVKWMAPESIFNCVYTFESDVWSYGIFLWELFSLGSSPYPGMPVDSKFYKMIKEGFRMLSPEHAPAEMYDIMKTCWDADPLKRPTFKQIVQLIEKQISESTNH

Row | Compound | IC50 [µM]
1 | Cc1nc(C2(C)CCN(c3ncnc4[nH]c(-c5ccc(C#N)cc5)cc34)CC2)[nH]c1-c1ccc(Cl)cc1 [P-3180, 4-[4-[4-[5-(4-chlorophenyl)-4-methyl-1H-imidazol-2-yl]-4-methyl-1-piperidyl]-7H-pyrrolo[2,3-d]pyrimidin-6-yl]benzonitrile] | 0.0001 to 1
2 | COc1ccc(-c2[nH]c(C3(C)CCN(c4ncnc5[nH]c(-c6ccc(OCC(=O)O)cc6)cc45)CC3)nc2C)cc1C [P-3217, 2-[4-[4-[4-[5-(4-methoxy-3-methyl-phenyl)-4-methyl-1H-imidazol-2-yl]-4-methyl-1-piperidyl]-7H-pyrrolo[2,3-d]pyrimidin-6-yl]phenoxy]acetic acid] | 0.0001 to 1
3 | Cc1nc(C2(C)CCN(c3ncnc4[nH]c(-c5ccc(N6CCOCC6)nc5)cc34)CC2)[nH]c1-c1ccc(OC(F)F)cc1 [P-3248, 4-[5-[4-[4-[5-[4-(difluoromethoxy)phenyl]-4-methyl-1H-imidazol-2-yl]-4-methyl-1-piperidyl]-7H-pyrrolo[2,3-d]pyrimidin-6-yl]-2-pyridyl]morpholine] | 0.0001 to 1
4 | Cc1nc(C2(C)CCN(c3ncnc4[nH]nc(C)c34)CC2)[nH]c1-c1cccc(OC(F)F)c1 [P-3201, 4-[4-[5-[3-(difluoromethoxy)phenyl]-4-methyl-1H-imidazol-2-yl]-4-methyl-1-piperidyl]-3-methyl-1H-pyrazolo[3,4-d]pyrimidine] | 0.0001 to 1
5 | Cc1nc(C2(C)CCN(c3ncnc4[nH]c(-c5ccc(OCC(=O)O)cc5)cc34)CC2)[nH]c1-c1ccc(OC(F)F)cc1 [P-3241, 2-[4-[4-[4-[5-[4-(difluoromethoxy)phenyl]-4-methyl-1H-imidazol-2-yl]-4-methyl-1-piperidyl]-7H-pyrrolo[2,3-d]pyrimidin-6-yl]phenoxy]acetic acid] | 0.0001 to 1
6 | COc1ccc(-c2[nH]c(C3(C)CCN(c4ncnc5[nH]nc(C)c45)CC3)nc2C)cc1F [P-3202, 4-[4-[5-(3-fluoro-4-methoxy-phenyl)-4-methyl-1H-imidazol-2-yl]-4-methyl-1-piperidyl]-3-methyl-1H-pyrazolo[3,4-d]pyrimidine] | 0.0001 to 1
7 | COc1cccc(-c2[nH]c(C3(C)CCN(c4ncnc5[nH]c(-c6ccc(NS(C)(=O)=O)cc6)cc45)CC3)nc2C)c1 [P-3234, N-[4-[4-[4-[5-(3-methoxyphenyl)-4-methyl-1H-imidazol-2-yl]-4-methyl-1-piperidyl]-7H-pyrrolo[2,3-d]pyrimidin-6-yl]phenyl]methanesulfonamide] | 0.0001 to 1
8 | Cc1cc2c(N3CCC(C)(c4nc(C)c(-c5cccc(OC(F)F)c5)[nH]4)CC3)ncnc2[nH]1 [P-3191, 4-[4-[5-[3-(difluoromethoxy)phenyl]-4-methyl-1H-imidazol-2-yl]-4-methyl-1-piperidyl]-6-methyl-7H-pyrrolo[2,3-d]pyrimidine] | 0.0001 to 1
9 | Cc1nc(C2(C)CCN(c3ncnc4[nH]c(-c5ccc(N6CCOCC6)nc5)cc34)CC2)[nH]c1-c1ccc(C(F)F)cc1 [P-3237, 4-[5-[4-[4-[5-[4-(difluoromethyl)phenyl]-4-methyl-1H-imidazol-2-yl]-4-methyl-1-piperidyl]-7H-pyrrolo[2,3-d]pyrimidin-6-yl]-2-pyridyl]morpholine] | 0.0001 to 1
10 | Cc1nc(C2(C)CCN(c3ncnc4[nH]c(-c5cnn(C(F)F)c5)cc34)CC2)[nH]c1-c1ccc(OC(F)F)cc1 [P-3242, 4-[4-[5-[4-(difluoromethoxy)phenyl]-4-methyl-1H-imidazol-2-yl]-4-methyl-1-piperidyl]-6-[1-(difluoromethyl)pyrazol-4-yl]-7H-pyrrolo[2,3-d]pyrimidine] | 0.0001 to 1
11 | CNC(=O)c1ccc(-c2cc3c(N4CCC(C)(c5nc(C)c(-c6cccc(OC(F)F)c6)[nH]5)CC4)ncnc3[nH]2)cn1 [P-3236, 5-[4-[4-[5-[3-(difluoromethoxy)phenyl]-4-methyl-1H-imidazol-2-yl]-4-methyl-1-piperidyl]-7H-pyrrolo[2,3-d]pyrimidin-6-yl]-N-methyl-pyridine-2-carb oxamide] | 0.0001 to 1
12 | CCOc1ccc(-c2[nH]c(C3(C)CCN(c4ncnc5[nH]c(-c6ccc(N7CCOCC7)nc6)cc45)CC3)nc2C)cc1 [P-3227, 4-[5-[4-[4-[5-(4-ethoxyphenyl)-4-methyl-1H-imidazol-2-yl]-4-methyl-1-piperidyl]-7H-pyrrolo[2,3-d]pyrimidin-6-yl]-2-pyridyl]morpholine] | 0.0001 to 1
13 | COc1ncc(-c2[nH]c(C3(C)CCN(c4ncnc5[nH]c(-c6ccc(C#N)cc6)cc45)CC3)nc2C)cc1F [P-3181, 4-[4-[4-[5-(5-fluoro-6-methoxy-3-pyridyl)-4-methyl-1H-imidazol-2-yl]-4-methyl-1-piperidyl]-7H-pyrrolo[2,3-d]pyrimidin-6-yl]benzonitrile] | 0.0001 to 1
14 | COc1ccc(-c2[nH]c(C3(C)CCN(c4ncnc5[nH]c(-c6ccc(C#N)cc6)cc45)CC3)nc2C)cn1 [P-3172, 4-[4-[4-[5-(6-methoxy-3-pyridyl)-4-methyl-1H-imidazol-2-yl]-4-methyl-1-piperidyl]-7H-pyrrolo[2,3-d]pyrimidin-6-yl]benzonitrile] | 0.0001 to 1
15 | COc1cccc(-c2[nH]c(C3(C)CCN(c4ncnc5[nH]c(-c6ccc(C(N)=O)cc6)cc45)CC3)nc2C)c1 [P-3225, 4-[4-[4-[5-(3-methoxyphenyl)-4-methyl-1H-imidazol-2-yl]-4-methyl-1-piperidyl]-7H-pyrrolo[2,3-d]pyrimidin-6-yl]benzamide] | 0.0001 to 1
16 | CCOc1ccc(-c2[nH]c(C3(C)CCN(c4ncnc5[nH]c(-c6ccc(N7CCOCC7)nc6)cc45)CC3)nc2C)cc1C [P-3249, 4-[5-[4-[4-[5-(4-ethoxy-3-methyl-phenyl)-4-methyl-1H-imidazol-2-yl]-4-methyl-1-piperidyl]-7H-pyrrolo[2,3-d]pyrimidin-6-yl]-2-pyridyl]morpholine] | 0.0001 to 1
17 | COc1ccc(-c2cc3c(N4CCC(C)(c5nc(C)c(-c6ccc(C(F)F)cc6)[nH]5)CC4)ncnc3[nH]2)cn1 [P-3190, 4-[4-[5-[4-(difluoromethyl)phenyl]-4-methyl-1H-imidazol-2-yl]-4-methyl-1-piperidyl]-6-(6-methoxy-3-pyridyl)-7H-pyrrolo[2,3-d]pyrimidine] | 0.0001 to 1
18 | COc1ccc(-c2[nH]c(C3(C)CCN(c4ncnc5[nH]c(-c6ccc(C(N)=O)cc6)cc45)CC3)nc2C)cc1C [P-3216, 4-[4-[4-[5-(4-methoxy-3-methyl-phenyl)-4-methyl-1H-imidazol-2-yl]-4-methyl-1-piperidyl]-7H-pyrrolo[2,3-d]pyrimidin-6-yl]benzamide] | 0.0001 to 1
19 | COc1ccc(-c2cc3c(N4CCC(C)(c5nc(C)c(-c6ccc(OC)c(F)c6)[nH]5)CC4)ncnc3[nH]2)cn1 [P-3188, 4-[4-[5-(3-fluoro-4-methoxy-phenyl)-4-methyl-1H-imidazol-2-yl]-4-methyl-1-piperidyl]-6-(6-methoxy-3-pyridyl)-7H-pyrrolo[2,3-d]pyrimidine] | 0.0001 to 1
20 | Cc1nc(C2(C)CCN(c3ncnc4[nH]c(-c5cnn(C(F)F)c5)cc34)CC2)[nH]c1-c1ccc(C(F)(F)F)cc1 [P-3179, 6-[1-(difluoromethyl)pyrazol-4-yl]-4-[4-methyl-4-[4-methyl-5-[4-(trifluoromethyl)phenyl]-1H-imidazol-2-yl]-1-piperidyl]-7H-pyrrolo[2,3-d]pyrimidine] | 0.0001 to 1
21 | CCOc1ccc(-c2[nH]c(C3(C)CCN(c4ncnc5[nH]c(-c6ccc(C(N)=O)cc6)cc45)CC3)nc2C)cc1 [P-3229, 4-[4-[4-[5-(4-ethoxyphenyl)-4-methyl-1H-imidazol-2-yl]-4-methyl-1-piperidyl]-7H-pyrrolo[2,3-d]pyrimidin-6-yl]benzamide] | 0.0001 to 1
22 | CCOc1ccc(-c2[nH]c(C3(C)CCN(c4ncnc5[nH]c(-c6ccc(OCC(=O)O)cc6)cc45)CC3)nc2C)cc1 [P-3224, 2-[4-[4-[4-[5-(4-ethoxyphenyl)-4-methyl-1H-imidazol-2-yl]-4-methyl-1-piperidyl]-7H-pyrrolo[2,3-d]pyrimidin-6-yl]phenoxy]acetic acid] | 0.0001 to 1
23 | CCc1[nH]c(C2CCN(c3ncnc4[nH]c(-c5cnn(C(F)F)c5)cc34)CC2)nc1C [P-3197, 6-[1-(difluoromethyl)pyrazol-4-yl]-4-[4-(5-ethyl-4-methyl-1H-imidazol-2-yl)-1-piperidyl]-7H-pyrrolo[2,3-d]pyrimidine] | 0.0001 to 1
24 | COc1ccc(-c2cc3c(N4CCC(C)(c5nc(C)c(-c6ccc(Cl)cc6)[nH]5)CC4)ncnc3[nH]2)cn1 [P-3176, 4-[4-[5-(4-chlorophenyl)-4-methyl-1H-imidazol-2-yl]-4-methyl-1-piperidyl]-6-(6-methoxy-3-pyridyl)-7H-pyrrolo[2,3-d]pyrimidine] | 0.0001 to 1
25 | COc1ccc(-c2[nH]c(C3(C)CCN(c4ncnc5[nH]c(-c6ccc(NS(C)(=O)=O)cc6)cc45)CC3)nc2C)cc1C [P-3228, N-[4-[4-[4-[5-(4-methoxy-3-methyl-phenyl)-4-methyl-1H-imidazol-2-yl]-4-methyl-1-piperidyl]-7H-pyrrolo[2,3-d]pyrimidin-6-yl]phenyl]methanesulfonamide] | 0.0001 to 1
26 | COc1cc(-c2cc3c(N4CCC(c5nnc(-c6cccc(OC(F)F)c6)[nH]5)CC4)ncnc3[nH]2)ccn1 [P-3207, 4-[4-[5-[3-(difluoromethoxy)phenyl]-4H-1,2,4-triazol-3-yl]-1-piperidyl]-6-(2-methoxy-4-pyridyl)-7H-pyrrolo[2,3-d]pyrimidine] | 1 to 10
27 | Cc1nc(C2(C)CCN(c3ncnc4[nH]c(-c5cnn(C(F)F)c5)cc34)CC2)[nH]c1-c1ccc(C(F)F)cc1 [P-3189, 4-[4-[5-[4-(difluoromethyl)phenyl]-4-methyl-1H-imidazol-2-yl]-4-methyl-1-piperidyl]-6-[1-(difluoromethyl)pyrazol-4-yl]-7H-pyrrolo[2,3-d]pyrimidine] | 0.0001 to 1
28 | COc1ccc(-c2[nH]c(C3CCN(c4ncnc5[nH]c(-c6ccc(C#N)cc6)cc45)CC3)nc2C)cc1 [P-3015, 4-[4-[4-[5-(4-methoxyphenyl)-4-methyl-1H-imidazol-2-yl]-1-piperidyl]-7H-pyrrolo[2,3-d]pyrimidin-6-yl]benzonitrile] | 0.0001 to 1

Reference: patent US9771369B2, “Compounds and methods for kinase modulation, and indications therefor” (Plexxikon Inc., priority 2014, dated 2017)
